In PubChem BioAssay (NCI):
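Step 1: Grow cells in 96-well plates. Step 2: Expose to compound for 48 hours at 5 concentrations. Step 3: Interpolate endpoints linearly; if unreached, use highest concentration. Abbreviation: GI50, concentration required for 50% inhibition of growth. TGI denotes the concentration required for complete inhibition of growth.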

Columns and labels:
Assay in all cases: NCI anticancer screen, dose series, 48 h
HS 578T breast = tested on: HS 578T breast
OVCAR-3 ovarian = tested on: OVCAR-3 ovarian
SNB-19 CNS = tested on: SNB-19 CNS
MALME-3M melanoma = tested on: MALME-3M melanoma
U251 CNS = tested on: U251 CNS
RXF 393 renal = tested on: RXF 393 renal
MCF7 breast = tested on: MCF7 breast
SW-620 colon = tested on: SW-620 colon
OVCAR-8 ovarian = tested on: OVCAR-8 ovarian
HOP-92 NSCLC = tested on: HOP-92 NSCLC
MDA-MB-435 = tested on: MDA-MB-435
IGROV1 ovarian = tested on: IGROV1 ovarian
SK-MEL-28 melanoma = tested on: SK-MEL-28 melanoma
SF-295 CNS = tested on: SF-295 CNS
HCC-2998 colon = tested on: HCC-2998 colon
HT29 colon = tested on: HT29 colon
TK-10 renal = tested on: TK-10 renal
786-0 renal = tested on: 786-0 renal
MDA-MB-231 breast = tested on: MDA-MB-231 breast
A549 NSCLC = tested on: A549 NSCLC
OVCAR-4 ovarian = tested on: OVCAR-4 ovarian
T-47D breast = tested on: T-47D breast
SN12C renal = tested on: SN12C renal
COLO 205 colon = tested on: COLO 205 colon
SK-MEL-2 melanoma = tested on: SK-MEL-2 melanoma
NCI/ADR-RES ovarian = tested on: NCI/ADR-RES ovarian
SK-OV-3 ovarian = tested on: SK-OV-3 ovarian
PC-3 prostate = tested on: PC-3 prostate
UO-31 renal = tested on: UO-31 renal

Work on `Oc1[nH]c2ccc(Cl)cc2c1/C=c1/ccc2c(c1)N=C(c1ccc(F)cc1)N=2` yielded a GI50 (HS 578T breast) of 2.31 µM, a TGI (HS 578T breast) of 7.51 µM and a GI50 (OVCAR-3 ovarian) of 1.92 µM. For the same molecule, the TGI (OVCAR-3 ovarian) was 3.58 µM, the GI50 (SNB-19 CNS) was 2.08 µM and the TGI (SNB-19 CNS) was 5.14 µM. The GI50 (MALME-3M melanoma) was 1.83 µM, the TGI (MALME-3M melanoma) was 3.95 µM and the GI50 (U251 CNS) was 1.81 µM. It also gave a TGI (U251 CNS) of 3.5 µM, a GI50 (RXF 393 renal) of 1.89 µM and a TGI (RXF 393 renal) of 3.72 µM. The GI50 (MCF7 breast) was 1.33 µM, the TGI (MCF7 breast) was 2.83 µM and the GI50 (SW-620 colon) was 1.89 µM. For the same molecule, the TGI (SW-620 colon) was 3.74 µM, the GI50 (OVCAR-8 ovarian) was 1.96 µM and the TGI (OVCAR-8 ovarian) was 4.26 µM. It also gave a GI50 (HOP-92 NSCLC) of 11.7 µM, a TGI (HOP-92 NSCLC) of 26.9 µM and a GI50 (MDA-MB-435) of 1.62 µM. It also gave a TGI (MDA-MB-435) of 3.45 µM, a GI50 (IGROV1 ovarian) of 2.12 µM and a TGI (IGROV1 ovarian) of 4.42 µM. It also gave a GI50 (SK-MEL-28 melanoma) of 1.78 µM, a TGI (SK-MEL-28 melanoma) of 3.48 µM and a GI50 (SF-295 CNS) of 7.02 µM. It also gave a TGI (SF-295 CNS) of 30.6 µM, a GI50 (HCC-2998 colon) of 4.68 µM and a TGI (HCC-2998 colon) of 15.9 µM. For the same molecule, the GI50 (HT29 colon) was 1.93 µM, the TGI (HT29 colon) was 3.5 µM and the GI50 (TK-10 renal) was 2.83 µM. The TGI (TK-10 renal) was 4.88 µM, the GI50 (786-0 renal) was 1.8 µM and the TGI (786-0 renal) was 3.9 µM. It also gave a GI50 (MDA-MB-231 breast) of 1.63 µM, a TGI (MDA-MB-231 breast) of 4.18 µM and a GI50 (A549 NSCLC) of 1.74 µM. It also gave a TGI (A549 NSCLC) of 3.61 µM, a GI50 (OVCAR-4 ovarian) of 1.64 µM and a TGI (OVCAR-4 ovarian) of 3.1 µM. The GI50 (T-47D breast) was 2.23 µM, the TGI (T-47D breast) was 6.17 µM and the GI50 (SN12C renal) was 2.71 µM. For the same molecule, the TGI (SN12C renal) was 10.2 µM, the GI50 (COLO 205 colon) was 2.32 µM and the TGI (COLO 205 colon) was 5.23 µM. It also gave a GI50 (SK-MEL-2 melanoma) of 2.87 µM, a TGI (SK-MEL-2 melanoma) of 6.81 µM and a GI50 (NCI/ADR-RES ovarian) of 1.87 µM. It also gave a TGI (NCI/ADR-RES ovarian) of 3.58 µM, a GI50 (SK-OV-3 ovarian) of 7.07 µM and a TGI (SK-OV-3 ovarian) of 19.1 µM. For the same molecule, the GI50 (PC-3 prostate) was 2.14 µM, the TGI (PC-3 prostate) was 5.65 µM and the GI50 (UO-31 renal) was 2.3 µM.
